In patent publication US12590127B2, “Split photoactive yellow protein complementation system and uses thereof” (PARIS SCIENCES ET LETTRES, priority 2019, dated 2026):

B1: iFAST: FAST variant with isoleucine at position 107 (SEQ ID NO: 16); its Nter fragment is SEQ ID NO: 30 (protein)
chain: MEHVAFGSEDIENTLAKMDDGQLDGLAFGAIQLDGDGNILQYNAAEGDITGRDPKQVIGKNFFKDVAPGTDSPEFYGKFKEGVASGNLNTMFEWMIPTSRGPTKVKIHMKKALSGDSYWVFVKRV
modifications: functional PYP

How the values were obtained:
NFAST = target: T1, NFAST (Halorhodospira halophila, UniProt P16113, C69G/D97P/F96I/M100R/Q99S/T101G/T95M/Y94W/Y98T); assay: Thermodynamic dissociation constants of NFAST:CFASTn couples in the presence of fluorogen (plate reader, one-site specific binding fit); conditions: synthetic CFASTn peptide and purified NFAST
T1 construct: His tag (N); made in house; host or cells: Rosetta (DE3) pLysS E. coli
Method: In one embodiment, the thermodynamic dissociation constant KD is determined by spectrofluorometric titration as described in the Examples.
Expression vectors were transformed in Rosetta (DE3) pLysS E. coli (NEW ENGLAND BIOLABS®). Cells were grown at 37° C. in LB medium complemented with 50 μg/mL kanamycin and 34 μg/mL chloramphenicol to OD600 nm 0.6. Expression was induced for 4 hours by adding isopropyl β-D-1-thiogalactopyranoside (IPTG) to a final concentration of 1 mM. Cells were harvested by centrifugation (4,000×g for 20 min at 4° C.) and frozen. The cell pellet was resuspended in lysis buffer (phosphate buffer 50 mM, NaCl 150 mM, MgCl2 2.5 mM, protease inhibitor, DNase, pH 7.4) and sonicated (5 min at 20% of amplitude, 3 sec on, 1 sec off). The lysate was incubated for 2 hours at 4° C. to allow DNA digestion by DNase. Cellular fragments were removed by centrifugation (9200×g for 1 hour at 4° C.). The supernatant was incubated overnight at 4° C. under gentle agitation with Ni-NTA agarose beads in phosphate buffered saline (PBS) (sodium phosphate 50 mM, NaCl 150 mM, pH 7.4) complemented with 10 mM imidazole. Beads were washed with 20 volumes of PBS containing 20 mM imidazole, and with 5 volumes of PBS complemented with 40 mM imidazole. His-tagged proteins were eluted with 5 volumes of PBS complemented with 0.5 M imidazole. The buffer was exchanged to PBS (50 mM phosphate, 150 mM NaCl, pH 7.4) using PD-10 desalting columns.
Thermodynamic dissociation constants for NFAST:CFASTn (n=8 to 11) couples were determined using peptides synthesized for CFASTn (n=8 to 11) and recombinantly purified NFAST. The affinity for NFAST:CFAST11 in the presence of 10 μM HMBR was determined independently from a minimum of three different purifications of NFAST. NFAST:CFAST11 was then run in parallel as an internal control for the determination of the other NFAST-CFAST combinations, which were all performed on the same day with the same preparation of NFAST. Thermodynamic dissociation constants were determined with a Spark 10M plate reader (TECAN®) and fit in Prism 6 to a one-site specific binding model.

HEK 293T cells = assay: Relative in-cell brightness of split-FAST after rapamycin-induced FRB-FKBP complementation; type: cell-based, human; conditions: FIG. 4; for relative in-cell brightness (fluorescence observed) by C-terminal fragment: FRB-NFAST + FKBP-CFASTn, any of HMBR, HBR-3,5DM, HBR-30M, HBR-3,5DOM
Source text: FIGS. 4A-4D are a set of histograms showing the relative in-cell brightness of various split-FAST with different fluorogenic HBR analogs as indicated (4A: HMBR, 4B: HBR-3,5DM, 4C: HBR-30M, and 4D: HBR-3,5DOM) in function of the C-terminal fragment CFASTn (n=11, 10 or 9) and the N-terminal fragment used. The iFAST label indicates when NFAST from iFAST (i.e., the first PYP fragment according to the invention consisting of the amino acid sequence NFAST with an isoleucine at position 107 instead of a valine as set forth in SEQ ID NO: 30) was used. If absent, NFAST from FAST was used (i.e., the first PYP fragment according to the invention consisting of the amino acid sequence as set forth in SEQ ID NO: 23). CFAST11, CFAST10 and CFAST9 correspond to the second PYP fragment according to the invention consisting of the amino acid sequence as set forth in SEQ ID NO: 34, SEQ ID NO: 42 and SEQ ID NO: 43, respectively. NFAST fragments were fused to FRB and CFAST fragments were fused to FKBP. Complementation was induced by addition of rapamycin. Split-FAST fluorescence was normalized by expression level using the fluorescence of co-expressed fluorescent proteins.
HEK 293T cells were seeded in ibidi μDish microscopy dishes and 24 hours prior to imaging were co-transfected with plasmids encoding CMV-FRB-NFAST (or NFAST(V107I))-P2A-mCherry (or EGFP)) and CMV-FKBP-CFASTn (n=11, 10 or 9). The cells were imaged before and after addition of 500 nM rapamycin.

HEK293 cells = assay: Photobleaching / photostability of split-FAST:HMBR in cells by confocal microscopy; type: cell-based, human; conditions: 10 μM HMBR, 488 nm excitation, rapamycin-treated cells, FAST as control, FIG. 5E
Method: FIGS. 5A-5G illustrate the detection of rapamycin-induced FRB-FKBP dimerization with the complementation system of the invention. 5A and 5B show HEK293T cells co-expressing FKBP-NFAST and FRB-CFASTn (n=10 or 11) which were labeled with 5 μM HMBR (5A) or 10 μM HBR-3,5DOM (5B) and imaged before and after addition of 100 nM rapamycin. Scale bars 10 μm. […] Cells expressing FRB-NFAST and FKBP-CFASTn (n=10 or 11) were treated with rapamycin to form split-FAST11 and split-FAST10. Cells expressing FAST were used as control. HMBR concentration was 10 μM. Excitation at 488 nm at 6.3 kW/cm2. Six cells were analyzed per condition. […] Scale bars 20 μm. […] Scale bars 20 μm.
Photobleaching measurements for HMBR were carried out at 10 μM fluorogen at 488 nm excitation (4.6 kW/cm2, […] pixel dwell); FAST was used as a control. Samples were imaged continuously for 1000 images at a 1 frame per second frequency.

[1] = KD of NFAST-CFASTn 10 μM HMBR, in the presence of 10 μM HMBR
[2] = KD of NFAST-CFASTn 10 μM HBR-3,5-DOM, in the presence of 10 μM HBR-3,5-DOM

T1 sequence (P16113 1-114 C69G/Y94W/T95M/F96I/D97P/Y98T/Q99S/M100R/T101G): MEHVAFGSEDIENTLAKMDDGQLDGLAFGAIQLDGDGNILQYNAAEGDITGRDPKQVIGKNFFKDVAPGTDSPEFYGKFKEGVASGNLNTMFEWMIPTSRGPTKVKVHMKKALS

Molecule | Kd (NFAST; [1]) | Kd (NFAST; [2]) | relative in-cell brightness (fluorescence observed) by C-terminal fragment (HEK 293T cells) | photostability of split-FAST:fluorogen assembly in cells (HEK293 cells) | fluorescence of the Nter fragment of iFAST + CFAST compared with NFAST + CFAST (HEK 293T cells; HEK 293T cells)
Ac-GDSYWVFV-NH2 [CFAST8] | 21 ± 4 µM |  |  |  | 
Ac-GDSYWVFVK-NH2 [CFAST9] | 5.7 ± 0.06 µM | 25 ± 1 µM | lowest |  | 
Ac-GDSYWVFVKR-NH2 [CFAST10] | 0.95 ± 0.08 µM | 6.2 ± 0.5 µM | lower | as photostable as the regular FAST:fluorogen complex | 
Ac-GDSYWVFVKRV-NH2 [CFAST11] | 0.21 ± 0.05 µM | 1.4 ± 0.2 µM | highest | as photostable as the regular FAST:fluorogen complex | 
B1 |  |  |  |  | similar
